Results taken from ChEMBL document CHEMBL1629585, “Nationwide survey of CTX-M-type extended-spectrum beta-lactamases among Klebsiella pneumoniae isolates in Slovenian hospitals” (2009).
Converted amounts (≈) assume the structure as drawn.

Assays:
Klebsiella pneumoniae [1] = assay: Antibacterial activity against Klebsiella pneumoniae B expressing CTX-M group 1 beta-lactamase by Etest method; format: functional
Klebsiella pneumoniae [2] = assay: Antibacterial activity against Klebsiella pneumoniae C expressing CTX-M group 1 beta-lactamase by Etest method; format: functional
Klebsiella pneumoniae [3] = assay: Antibacterial activity against Klebsiella pneumoniae expressing CTX-M group 1 beta-lactamase by Etest method; format: functional
Klebsiella pneumoniae [4] = assay: Antibacterial activity against Klebsiella pneumoniae A expressing CTX-M group 1 beta-lactamase by Etest method; format: functional
Klebsiella pneumoniae [5] = assay: Antibacterial activity against Klebsiella pneumoniae D expressing CTX-M group 1 beta-lactamase by Etest method; format: functional
Escherichia coli [6] = assay: Antibacterial activity against Escherichia coli TrC A expressing Klebsiella pneumoniae A blaCTX-M beta-lactamase by Etest method; format: functional
Escherichia coli [7] = assay: Antibacterial activity against Escherichia coli TrC C expressing Klebsiella pneumoniae C blaCTX-M beta-lactamase by Etest method; format: functional
Escherichia coli [8] = assay: Antibacterial activity against rifampicin resistant Escherichia coli J53-2 by Etest method
Escherichia coli [9] = assay: Antibacterial activity against Escherichia coli TrC B expressing Klebsiella pneumoniae B blaCTX-M beta-lactamase by Etest method; format: functional
Klebsiella pneumoniae [10] = assay: Antibacterial activity against Klebsiella pneumoniae B expressing CTX-M group 1 beta-lactamase by Etest method in presence of Tazobactam; format: functional
Klebsiella pneumoniae [11] = assay: Antibacterial activity against Klebsiella pneumoniae expressing CTX-M group 1 beta-lactamase by Etest method in presence of Tazobactam; format: functional
Klebsiella pneumoniae [12] = assay: Antibacterial activity against Klebsiella pneumoniae D expressing CTX-M group 1 beta-lactamase by Etest method in presence of Tazobactam; format: functional
Klebsiella pneumoniae [13] = assay: Antibacterial activity against Klebsiella pneumoniae C expressing CTX-M group 1 beta-lactamase by Etest method in presence of Tazobactam; format: functional
Klebsiella pneumoniae [14] = assay: Antibacterial activity against Klebsiella pneumoniae A expressing CTX-M group 1 beta-lactamase by Etest method in presence of Tazobactam; format: functional

| Compound | MIC (Klebsiella pneumoniae [1]) [µg/mL] | MIC50 (Klebsiella pneumoniae [1]) [µg/mL] | MIC90 (Klebsiella pneumoniae [1]) [µg/mL] | MIC (Klebsiella pneumoniae [2]) [µg/mL] | MIC50 (Klebsiella pneumoniae [2]) [µg/mL] | MIC90 (Klebsiella pneumoniae [2]) [µg/mL] | MIC (Klebsiella pneumoniae [3]) [µg/mL] | MIC50 (Klebsiella pneumoniae [3]) [µg/mL] | MIC90 (Klebsiella pneumoniae [3]) [µg/mL] | MIC (Klebsiella pneumoniae [4]) [µg/mL] | MIC50 (Klebsiella pneumoniae [4]) [µg/mL] | MIC90 (Klebsiella pneumoniae [4]) [µg/mL] | MIC (Klebsiella pneumoniae [5]) [µg/mL] | MIC50 (Klebsiella pneumoniae [5]) [µg/mL] | MIC90 (Klebsiella pneumoniae [5]) [µg/mL] | MIC (Escherichia coli [6]) [µg/mL] | MIC (Escherichia coli [7]) [µg/mL] | MIC (Escherichia coli [8]) [µg/mL] | MIC (Escherichia coli [9]) [µg/mL] | also measured |
| --- | --- | --- | --- | --- | --- | --- | --- | --- | --- | --- | --- | --- | --- | --- | --- | --- | --- | --- | --- | --- |
| CC1(C)S[C@@H]2[C@H](NC(=O)[C@H](N)c3ccc(O)cc3)C(=O)N2[C@H]1C(=O)O [AMOXICILLIN] | 12 (≈ 32.8 µM) | 16 (≈ 43.8 µM) | 16 (≈ 43.8 µM) | 6 (≈ 16.4 µM) | 16 (≈ 43.8 µM) | 64 (≈ 175 µM) | 8 (≈ 21.9 µM) | 16 (≈ 43.8 µM) | > 256 | 4 (≈ 10.9 µM) | 8 (≈ 21.9 µM) | 8 (≈ 21.9 µM) | 6 (≈ 16.4 µM) | 16 (≈ 43.8 µM) | 16 (≈ 43.8 µM) | – | – | – | – | – |
| CO[C@@]1(NC(=O)Cc2cccs2)C(=O)N2C(C(=O)O)=C(COC(N)=O)CS[C@@H]21 [CEFOXITIN] | 8 (≈ 18.7 µM) | 8 (≈ 18.7 µM) | 16 (≈ 37.4 µM) | 8 (≈ 18.7 µM) | 12 (≈ 28.1 µM) | 48 (≈ 112 µM) | 1.5 (≈ 3.51 µM) | 3 (≈ 7.02 µM) | 48 (≈ 112 µM) | 3 (≈ 7.02 µM) | 4 (≈ 9.36 µM) | 24 (≈ 56.1 µM) | 3 (≈ 7.02 µM) | 4 (≈ 9.36 µM) | 16 (≈ 37.4 µM) | 16 (≈ 37.4 µM) | 8 (≈ 18.7 µM) | 8 (≈ 18.7 µM) | 8 (≈ 18.7 µM) | – |
| CO/N=C(\C(=O)N[C@@H]1C(=O)N2C(C(=O)[O-])=C(C[N+]3(C)CCCC3)CS[C@H]12)c1csc(N)n1 | 16 (≈ 33.3 µM) | 16 (≈ 33.3 µM) | 48 (≈ 99.9 µM) | – | – | – | – | – | – | – | – | – | 32 (≈ 66.6 µM) | – | > 256 | – | – | – | – | – |
| CCN1CCN(C(=O)N[C@@H](C(=O)N[C@@H]2C(=O)N3[C@@H]2SC(C)(C)[C@@H]3C(=O)O)c2ccccc2)C(=O)C1=O [PIPERACILLIN] | – | – | – | – | – | – | – | – | – | – | – | – | – | – | – | > 64 | > 64 | 4 (≈ 7.73 µM) | > 64 | MIC (Klebsiella pneumoniae [10]): 32 µg/mL; MIC50 (Klebsiella pneumoniae [10]): 64 µg/mL; MIC90 (Klebsiella pneumoniae [10]): > 256 µg/mL; MIC (Klebsiella pneumoniae [11]): 3 µg/mL; MIC50 (Klebsiella pneumoniae [11]): 12 µg/mL; MIC90 (Klebsiella pneumoniae [11]): > 256 µg/mL; MIC (Klebsiella pneumoniae [12]): 4 µg/mL; MIC50 (Klebsiella pneumoniae [12]): 12 µg/mL; MIC90 (Klebsiella pneumoniae [12]): 24 µg/mL; MIC (Klebsiella pneumoniae [13]): 3 µg/mL; MIC50 (Klebsiella pneumoniae [13]): > 256 µg/mL; MIC90 (Klebsiella pneumoniae [13]): > 256 µg/mL; MIC (Klebsiella pneumoniae [14]): 2 µg/mL; MIC50 (Klebsiella pneumoniae [14]): 3 µg/mL; MIC90 (Klebsiella pneumoniae [14]): 12 µg/mL |
| NCC[C@H](O)C(=O)N[C@@H]1C[C@H](N)[C@@H](O[C@H]2O[C@H](CN)[C@@H](O)[C@H](O)[C@H]2O)[C@H](O)[C@H]1O[C@H]1O[C@H](CO)[C@@H](O)[C@H](N)[C@H]1O [AMIKACIN] | 4 (≈ 6.83 µM) | 6 (≈ 10.2 µM) | 12 (≈ 20.5 µM) | 1.5 (≈ 2.56 µM) | 6 (≈ 10.2 µM) | 16 (≈ 27.3 µM) | 2 (≈ 3.42 µM) | 16 (≈ 27.3 µM) | 32 (≈ 54.6 µM) | 2 (≈ 3.42 µM) | 48 (≈ 82 µM) | 96 (≈ 164 µM) | 2 (≈ 3.42 µM) | 6 (≈ 10.2 µM) | 16 (≈ 27.3 µM) | 2 (≈ 3.42 µM) | 4 (≈ 6.83 µM) | 1 (≈ 1.71 µM) | 4 (≈ 6.83 µM) | – |
| NC[C@H]1O[C@H](O[C@H]2[C@H](O)[C@@H](O[C@H]3O[C@H](CO)[C@@H](O)[C@H](N)[C@H]3O)[C@H](N)C[C@@H]2N)[C@H](N)C[C@@H]1O [TOBRAMYCIN] | 32 (≈ 68.4 µM) | – | – | 32 (≈ 68.4 µM) | – | – | – | – | – | 32 (≈ 68.4 µM) | – | – | – | – | – | 32 (≈ 68.4 µM) | 16 (≈ 34.2 µM) | 1 (≈ 2.14 µM) | 32 (≈ 68.4 µM) | – |
